Results reported in patent US20210315893A1 (Galapagos NV, priority 2017, published 2021).

Columns and labels:
S1PR2 = target: T1, S1PR2 (Homo sapiens, UniProt O95136); experiment: S1PR2 binding assay (competition with radioactively labeled S1P, SpA); conditions: membranes from stable cell line over expressing S1PR2, SpA beads; read-out: S1P2 EC50 (nM), S1PR2 binding EC50
T1 construct: expressed in transfected cells
Description: The following assay can be used for determination of S1PR2 binding. The binding assay measures the potential to compete with radioactively labeled S1P for binding to the receptor.
The assay is performed in a96 well plate where the following reagents are added. First 50 μL compound is added into the assay plate, followed by addition of 100 μL ofa mixture consisting of membrane and Scintillation proximity Assay (SpA) beads [mixture consists […] membranes derived from stable cell line over expressing SPR2, 0.5 mg/well Polyvinyltoluene-Wheat Germ-Agglutinin (PVT-WGA) beads (Perkin Elmer, RPNQOO1)]. All components are diluted in assay buffer containing 20 mM Tris pH 7.5; 10 mM MgCl2; 100 mM NaCl; 0.4% BSA FAF; 1 mM Na3VO4) and incubated for 15 min until addition to the assay plate. Subsequently, 50 ul of radioactively labeled S1P is added to the wells (Sphingosine, D-erythro-[3-3H] 1-phosphate; ARC; ART0778). After an incubation for 2 h at room temperature, plates are centrifuged at 2000 rpm during 20 min. Plates are read on a Topcount reader (Perkin Elmer) immediately after centrifugation (readout time, 1 min/well).

[1] = target: T2, human GPCR sphingosine 1-phosphate receptor 2 (Homo sapiens, UniProt O95136); experiment: S1PR2 antagonist Ca2+ flux assay; format: cell-based; conditions: antagonist mode, CHO-S1PR2 cells, S1P at EC80, Ca2+ fluorescence; read-out: S1P2 EC50 (nM), S1P2 antagonist EC50
T2 construct: host or cells: CHO
T2 sequence (O95136 whole entry): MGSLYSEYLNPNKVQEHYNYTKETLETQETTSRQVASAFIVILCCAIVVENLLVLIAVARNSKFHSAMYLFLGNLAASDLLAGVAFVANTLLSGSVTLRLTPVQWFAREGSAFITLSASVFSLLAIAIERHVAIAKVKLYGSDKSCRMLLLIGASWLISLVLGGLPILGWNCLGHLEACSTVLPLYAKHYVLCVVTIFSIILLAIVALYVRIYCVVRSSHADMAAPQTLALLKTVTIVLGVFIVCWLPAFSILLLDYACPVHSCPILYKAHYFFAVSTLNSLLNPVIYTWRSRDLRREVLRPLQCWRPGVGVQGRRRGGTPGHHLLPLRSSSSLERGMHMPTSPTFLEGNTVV
Description: Triggering of S1PR2 by administration of Sphingosine-1-phosphate leads to a transient increase in intracellular Ca^2+. The Ca^2+ flux assays are measuring the release of Ca^2+ intracellularly by use of a Ca^2+ sensitive fluorescent dye. The assay is firstly run in agonist mode (incubation of compounds alone) to ensure that the Ca^2+ released measured is not caused by the test compound having an agonistic effect. Then the assay is continued in antagonist mode (Sphingosine-1-Phosphate added to incubated medium containing the test compounds).
CHO cells stably overexpressing human GPCR sphingosine 1-phosphate receptor 2 (CHO-S1PR2 Perkin Elmer; ES-594-A) are seeded from a frozen stock in 384 wells sterile microplates (50 μL; 7,500 cells/well) and are incubated overnight at 37° C. and 5% CO2. The next day cells are washed twice with starvation medium (F-12 Ham's medium containing 0.1% BSA (Fatty acid free: FAF)) and left in 25 μL starvation medium for 1 h at 37° C., 5% CO2. After this starvation cells are incubated with 25 μL buffer containing the Ca^2+-sensitive fluorescent dye (0.5 mg Fluo8+125 mg Allura Red in 100 mL of 1% DMSO, in HBSS+20 mM Hepes+5 mM probenecid). The cells are incubated for an additional 1 h after which 10 μL compounds, diluted in HBSS buffer with 20 mM Hepes and 0.1% BSA (FAF), are added to the cells and intracellular Ca2+ changes are immediately measured by reading fluorescence during 3 min (FDSS/pCELL reader). The ratio of the maximal fluorescence over the background fluorescence before compound injection is used to determine compound response.
After readout of the agonist activity, the plates are incubated for 15 min at 37° C. and 5% CO2. Then, cells are stimulated with 10 μL Sphingosine-1-Phosphate (S1P) (Avanti Polar lipids-860492P) at its EC80 concentration. Intracellular Ca2+ changes are immediately measured by reading fluorescence during 3 min (FDSS/pCELL reader). The ratio of the maximal fluorescence over the background fluorescence before compound injection is used to determine compound response.
The obtained ratio's for agonist and antagonist readout were normalized versus vehicle and EC 100 of S1P ascontrols for agonist mode and versus vehicle and […]. From these normalized data EC50 of the compounds are derived.

T1 sequence (O95136 whole entry): as above

EC50 (S1PR2)	EC50 [1]	Structure (SMILES)
8450 nM	–	O=c1c2ccccc2c(Cc2nc3cc(Cl)c(OC(F)(F)F)cc3[nH]2)nn1C1CCCC1 [Compound 24, 4-[[5-chloro-6-(trifluoromethoxy)-1H-benzimidazol-2-yl]methyl]-2-cyclopentyl-phthalazin-1-one]
–	889 nM	O=c1c2ccccc2c(Cc2nc3cc(Cl)c(OC(F)(F)F)cc3[nH]2)nn1C1CCC1 [Compound 26, 4-[[5-chloro-6-(trifluoromethoxy)-1H-benzimidazol-2-yl]methyl]-2-cyclobutyl-phthalazin-1-one]
33300 nM	1490 nM	O=c1c2ccccc2c(Cc2nc3cc(Cl)c(OC(F)(F)F)cc3[nH]2)nn1CC1CCC1 [Compound 28, 4-[[6-chloro-5-(trifluoromethoxy)-1H-benzimidazol-2-yl]methyl]-2-(cyclobutylmethyl)phthalazin-1-one]
5190 nM	4340 nM	O=c1c2ccccc2c(Cc2nc3cc(Cl)c(OC(F)(F)F)cc3[nH]2)nn1CC1CCCO1 (centres unmarked) [Compound 34, 4-[[6-chloro-5-(trifluoromethoxy)-1H-benzimidazol-2-yl]methyl]-2-(THF-2-ylmethyl)phthalazin-1-one]
5410 nM	–	O=c1c2ccccc2c(Cc2nc3cc(Cl)c(OC(F)(F)F)cc3[nH]2)nn1CC1CCCCO1 (centres unmarked) [Compound 35, 4-[[6-chloro-5-(trifluoromethoxy)-1H-benzimidazol-2-yl]methyl]-2-(tetrahydropyran-2-ylmethyl)phthalazin-1-one]
100000 nM	≥ 19900 nM	CC1(Cn2nc(Cc3nc4cc(Cl)c(OC(F)(F)F)cc4[nH]3)c3ccccc3c2=O)COC1 [Compound 36, 4-[[6-chloro-5-(trifluoromethoxy)-1H-benzimidazol-2-yl]methyl]-2-[(3-methyloxetan-3-yl)methyl]phthalazin-1-one]
1210 nM	1280 nM	CC1(C)OCC(Cn2nc(Cc3nc4cc(Cl)c(OC(F)(F)F)cc4[nH]3)c3ccccc3c2=O)O1 (centres unmarked) [Compound 38, 4-[[6-chloro-5-(trifluoromethoxy)-1H-benzimidazol-2-yl]methyl]-2-[(2,2-dimethyl-1,3-dioxolan-4-yl)methyl]phthalazin-1-one]
13400 nM	≥ 19900 nM	CN1CCCC(Cn2nc(Cc3nc4cc(Cl)c(OC(F)(F)F)cc4[nH]3)c3ccccc3c2=O)C1 (centres unmarked) [Compound 39, 4-[[6-chloro-5-(trifluoromethoxy)-1H-benzimidazol-2-yl]methyl]-2-[(1-methyl-3-piperidyl)methyl]phthalazin-1-one]
–	2090 nM	CC(C)(C)C(=O)Cn1nc(Cc2nc3cc(Cl)c(OC(F)(F)F)cc3[nH]2)c2ccccc2c1=O [Compound 44, 4-[[6-chloro-5-(trifluoromethoxy)-1H-benzimidazol-2-yl]methyl]-2-(3,3-dimethyl-2-oxo-butyl)phthalazin-1-one]
–	98.4 nM	O=C(Cn1nc(Cc2nc3cc(OCC(F)F)c(Cl)cc3[nH]2)c2c(C3CC3)cccc2c1=O)N1CCOCC1 [Compound 48, 4-[[6-chloro-5-(2,2-difluoroethoxy)-1H-benzimidazol-2-yl]methyl]-5-cyclopropyl-2-(2-morpholino-2-oxo-ethyl)phthalazin-1-one]
–	2360 nM	N#Cc1cc2[nH]c(Cc3nn(CC(=O)N4CCOCC4)c(=O)c4ccccc34)nc2c(Cl)c1OCC(F)F [Compound 53, 7-chloro-6-(2,2-difluoroethoxy)-2-[[3-(2-morpholino-2-oxo-ethyl)-4-oxo-phthalazin-1-yl]methyl]-3H-benzimidazole-5-carbonitrile]
4570 nM	1460 nM	O=c1c2ccccc2c(Cc2nc3cc(Cl)c(OC(F)(F)F)cc3[nH]2)nn1CC1CCCN1 (centres unmarked) [Compound 55, 4-[[6-chloro-5-(trifluoromethoxy)-1H-benzimidazol-2-yl]methyl]-2-(pyrrolidin-2-ylmethyl)phthalazin-1-one]
1100 nM	890 nM	O=c1c2ccccc2c(Cc2nc3cc(Cl)c(OC(F)(F)F)cc3[nH]2)nn1CC1CCCNC1 (centres unmarked) [Compound 58, 4-[[6-chloro-5-(trifluoromethoxy)-1H-benzimidazol-2-yl]methyl]-2-(3-piperidylmethyl)phthalazin-1-one]
1270 nM	4160 nM	O=c1c2ccccc2c(Cc2nc3cc(Cl)c(OC(F)(F)F)cc3[nH]2)nn1CC1CNCCO1 (centres unmarked) [Compound 63, 4-[[5-chloro-6-(trifluoromethoxy)-1H-benzimidazol-2-yl]methyl]-2-(morpholin-2-ylmethyl)phthalazin-1-one]
57.1 nM	18.9 nM	Cc1cccc2c(=O)n(CC(=O)N3CCOCC3)nc(Cc3nc4cc(OCC(F)F)c(C#N)cc4[nH]3)c12 [Compound 66, 6-(2,2-difluoroethoxy)-2-[[8-methyl-3-(2-morpholino-2-oxo-ethyl)-4-oxo-phthalazin-1-yl]methyl]-3H-benzimidazole-5-carbonitrile]
–	45 nM	CCOc1cc2[nH]c(Cc3nn(CC(=O)O)c(=O)c4ccccc34)nc2cc1C#N [Compound 138, 2-[4-[(5-cyano-6-ethoxy-1H-benzimidazol-2-yl)methyl]-1-oxo-phthalazin-2-yl]acetic acid]
–	388 nM	N#Cc1cc2[nH]c(Cc3nn(CC(=O)N4CCN(CCO)CC4)c(=O)c4ccccc34)nc2cc1OCC(F)F [Compound 225, 6-(2,2-difluoroethoxy)-2-[[3-[2-[4-(2-hydroxyethyl)piperazin-1-yl]-2-oxo-ethyl]-4-oxo-phthalazin-1-yl]methyl]-3H-benzimidazole-5-carbonitrile]
5240 nM	–	N#Cc1cc2[nH]c(Cc3nn(CC(=O)N4CCC(N5CCOCC5)CC4)c(=O)c4ccccc34)nc2cc1OCC(F)F [Compound 238, 6-(2,2-difluoroethoxy)-2-[[3-[2-(4-morpholino-1-piperidyl)-2-oxo-ethyl]-4-oxo-phthalazin-1-yl]methyl]-3H-benzimidazole-5-carbonitrile]
–	89.6 nM	CS(=O)(=O)NC(=O)Cn1nc(Cc2nc3cc(OCC(F)F)c(F)cc3[nH]2)c2ccccc2c1=O [Compound 248, 2-[4-[[5-(2,2-difluoroethoxy)-6-fluoro-1H-benzimidazol-2-yl]methyl]-1-oxo-phthalazin-2-yl]-N-methylsulfonyl-acetamide]
–	10.2 nM	CS(=O)(=O)NC(=O)Cn1nc(Cc2nc3cc(OCC4(C#N)CC4)c(Cl)cc3[nH]2)c2ccccc2c1=O [Compound 249, 2-[4-[[6-chloro-5-[(1-cyanocyclopropyl)methoxy]-1H-benzimidazol-2-yl]methyl]-1-oxo-phthalazin-2-yl]-N-methylsulfonyl-acetamide]
–	9.39 nM	CC1(COc2cc3nc(Cc4nn(CC(=O)NS(C)(=O)=O)c(=O)c5ccccc45)[nH]c3cc2Cl)CC1 [Compound 250, 2-[4-[[6-chloro-5-[(1-methylcyclopropyl)methoxy]-1H-benzimidazol-2-yl]methyl]-1-oxo-phthalazin-2-yl]-N-methylsulfonyl-acetamide]
–	≥ 19900 nM	CCOc1ccc2nn(Cc3nn(CC(=O)O)c(=O)c4ccccc34)cc2c1Cl [Compound 254, 2-[4-[(4-chloro-5-ethoxy-indazol-2-yl)methyl]-1-oxo-phthalazin-2-yl]acetic acid]
–	≥ 19900 nM	CCOc1ccc2cn(Cc3nn(CC(=O)O)c(=O)c4ccccc34)nc2c1Cl [compound 22, 2-[4-[(7-chloro-6-ethoxy-indazol-2-yl)methyl]-1-oxo-phthalazin-2-yl]acetic acid]
